Experimental findings from PMC12661400, “Oral bioavailable ITRI-148 degrades androgen receptor variants and overcomes antiandrogen resistance in advanced prostate cancer” (Neoplasia (New York, N.Y.), 2025) are described below.

The subject of data set [1] is CWR22Rv1 xenografts. Description: Hormone-intact CWR22Rv1 xenograft study. The class given is in vivo. An excerpt:
Immunodifficient male CB-17 SCID mice (CB17/Icr-Prkdc^scid/IcrIcoCrlBltw) and NOD SCID mice (NOD.CB17-Prkdc^scid/NCrCrlBltw) mice at four to six weeks of age were purchased from BioLASCO Taiwan Co., Ilan, Taiwan. All mice were housed in conventional cages in the AAALAC Full Accreditation (2011) in Industrial Technology Research Institute and were allowed to acclimatize and recover from shipping-related stress for one week prior to the study. The health of the mice was monitored by daily observations. Animals were kept in rooms at temperature of 22–26°C with 40–70 % humidity, positive pressure, 60 % air recirculation, ventilation rate 15–20 changes per hour, and a controlled light-dark cycle (12–12 hours). The order and location of each animal cage was randomly assigned to minimize potential confounders. CWR22Rv1 cells (5 × 10^6) were suspended in 100 μL of PBS with 30 % Matrigel and subcutaneously implanted into the right flank of male CB-17 SCID mice. Tumors were measured with calipers, and tumor size was calculated as follows: tumor volume (V) = (L × S^2)/2 (L, longest diameter, mm; S, shortest diameter, mm). When mean tumor volume reached 150–200 mm^3, the mice were randomly assigned into indicated groups (n = 5-6/ group) and the day of initiating treatments was assigned as day 0. VCaP cells (5 × 10⁶) suspended in 50 % Matrigel were subcutaneously implanted into male NOD SCID mice. […] Tumor size and body weight of the animals were monitored and recorded two to three times per week. […] The drug antitumor efficacy was presented as percentages of TGI of each tested animal, calculated as follows: [1 − (final tumor volume ^treated group – initial tumor volume ^treated group) / (final tumor volume ^vehicle group – initial tumor volume ^vehicle group)] × 100. Body weight of each mouse was also compared to that on the first day of treatment (day 0) and expressed as a percentage of day 0 value. […] Statistical analysis of the differences between two drug and vehicle treated groups was determined by two-tailed Student’s t-test.

The target of data set [2] is T1, AR-V7 (Homo sapiens, UniProt P10275).
T1 construct: endogenous in cells; host or cells: VCaP, CWR22Rv1
T1 sequence (P10275 1-644 isoform P10275-3): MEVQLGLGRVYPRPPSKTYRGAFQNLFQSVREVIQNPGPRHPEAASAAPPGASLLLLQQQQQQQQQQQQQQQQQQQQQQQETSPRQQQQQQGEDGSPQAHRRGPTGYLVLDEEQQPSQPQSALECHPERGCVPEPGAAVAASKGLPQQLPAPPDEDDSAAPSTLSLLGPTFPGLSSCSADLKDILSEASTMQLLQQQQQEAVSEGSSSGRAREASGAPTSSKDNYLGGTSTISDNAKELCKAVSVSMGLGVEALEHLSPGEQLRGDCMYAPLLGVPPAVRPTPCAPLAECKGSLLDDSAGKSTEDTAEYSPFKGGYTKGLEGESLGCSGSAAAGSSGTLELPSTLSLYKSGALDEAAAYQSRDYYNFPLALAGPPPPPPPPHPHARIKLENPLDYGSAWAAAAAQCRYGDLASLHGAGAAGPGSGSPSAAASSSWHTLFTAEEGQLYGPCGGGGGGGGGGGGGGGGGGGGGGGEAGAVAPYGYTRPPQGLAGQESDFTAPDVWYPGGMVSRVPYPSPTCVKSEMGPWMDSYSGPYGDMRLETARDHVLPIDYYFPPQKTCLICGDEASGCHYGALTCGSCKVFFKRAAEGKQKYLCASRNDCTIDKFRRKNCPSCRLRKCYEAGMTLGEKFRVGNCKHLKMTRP
Description: AR-V7 degradation by immunoblotting in CRPC cells. The class given is cell-based. As to the method:
Cell lysis, Western blotting, and AR ubiquitination were performed as described in [17]. Primary antibodies: AR (Millipore 06-680), AR-V7 (RevMAb Biosciences 31-1109-00), PSA (ABclonal A4355), NKX3-1 (Cell Signaling Technology 92998), GAPDH (Cell Signaling Technology 2118) and β-Actin (Sigma-Aldrich A5441).
Fig. 1 ITRI-148 induces degradation of both AR and AR-V7 proteins in CRPC cells. […] (B) Expression of Flag-tagged AR-V7 in 293T cells following ITRI-148 treatment. Cells transiently expressing Flag-AR-V7 were pretreated with 50 μg/mL cycloheximide for 1 hour, then exposed to ITRI-148 at the indicated concentrations for 8 hours. AR-V7 expression was detected using an anti-Flag antibody. (C) Representative immunoblots showing AR protein levels in VCaP and CWR22Rv1 cells after 48 hours of ITRI-148 treatment. An N-terminal AR antibody was used to detect both full-length AR and LBD-truncated variants (AR-V(ΔLBD)) in CWR22Rv1 cells, while AR-V7 was detected using an AR-V7-specific antibody. DC₅₀ values were calculated from normalized band intensities, and Dₘₐₓ represents the maximal degradation achieved at 10 μM ITRI-148. (D) Immunofluorescence staining of AR after 24 or 48 hours of ITRI-148 treatment, detected using an N-terminal AR antibody. […] (F) Western blot analysis of ectopically expressed wild-type (WT) and mutant Myc-tagged AR in DU145 cells following 24 hours of treatment with 10 μM ITRI-148. Quantified AR levels are as indicated. TEXT PRINTED IN THE PICTURE: (C) ITRI-148: DC50 (μM) AR CWR22Rv1: 1.23 ± 1.86; DC50 (μM) AR VCaP: 0.05 ± 0.03; DC50 (μM) AR-V7 CWR22Rv1: 1.20 ± 0.92; DC50 (μM) AR-V7 VCaP: 0.02 ± 0.02; Dmax (%) AR CWR22Rv1: 65.02 ± 19.91; Dmax (%) AR VCaP: 80.49 ± 5.61; Dmax (%) AR-V7 CWR22Rv1: 72.10 ± 3.15; Dmax (%) AR-V7 VCaP: 91.36 ± 2.05
A general note: Immunoblotting shows a protein as a band on a membrane.

Setting [3] is: VCaP, maximal degradation at 10 μM.

Structures are written as SMILES. Read-outs that look alike come from different tables or passages of the source.

For orientation: Dmax means the greatest extent of degradation seen. Low values mean shallow degradation, high ones deep degradation. In the case of `O=C1CCC(N2C(=O)c3cccc(NCC(=O)N4CCC(N5CCC(C#Cc6ccc(C7CCN(C8=Nn9c(nnc9C(F)(F)F)CC8)CC7)cc6)CC5)CC4)c3C2=O)C(=O)N1` (stereo not drawn) [ITRI-148], the “toxicity reflected by weight-loss of the animals” value in data set [1] (PO 30-60 mg/kg BID) was “No toxicity reflected by weight-loss of the animals was observed”. The results for the “tumor growth inhibition (TGI)” value in data set [1] (oral 30 mg/kg BID) and in data set [1] (oral 60 mg/kg BID) were 38.08% and 69.39%, respectively. Moreover, the DC50 in data set [2] (CWR22Rv1, 48 hours, read-out: DC50 AR-V7) is 1200 ± 920 nM; in data set [2] (VCaP cells, read-out: half-maximal degradation concentration (DC50) for AR-V7), approximately 20 nM; in data set [2] (VCaP, 48 hours, read-out: DC50 AR-V7), 20 ± 20 nM. Also, the greatest degradation seen (Dmax) at 10 µM came to 72.1 ± 3.15% in data set [2] (CWR22Rv1, CWR22Rv1, maximal degradation at 10 μM) and 91.4 ± 2.05% in data set [2] (setting [3]). Moreover, the “Dmax AR-V7” value in data set [2] (setting [3]) worked out at 91%.
